The experiment concerns the target SPM-1 (São Paulo metallo-β-lactamase; SPM-1* for 19F-labelled variants) (Pseudomonas aeruginosa, UniProt Q8G9Q0, Y58C). To be noted: Cys58 labelled with CH2COCF3 (BTFA); meropenem up to 400 uM, 40 uM protein, 50 mM Tris pH 7.5, 9:1 H2O/D2O; product formed in situ; presence of this pair in Table S3 not seen.

Chain of SPM-1 (São Paulo metallo-β-lactamase; SPM-1* for 19F-labelled variants) (Q8G9Q0 29-276 Y58C): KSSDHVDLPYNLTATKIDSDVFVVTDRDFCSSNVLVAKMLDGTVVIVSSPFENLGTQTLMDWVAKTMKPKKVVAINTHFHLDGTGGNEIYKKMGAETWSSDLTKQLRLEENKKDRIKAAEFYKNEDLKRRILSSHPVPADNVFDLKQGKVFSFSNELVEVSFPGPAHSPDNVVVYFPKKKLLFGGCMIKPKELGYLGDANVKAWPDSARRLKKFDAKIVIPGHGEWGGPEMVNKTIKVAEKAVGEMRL

Turning to `CC(O)C(C(=O)O)C1NC(C(=O)O)=C(SC2CNC(C(=O)N(C)C)C2)C1C` (stereo not shown) [hydrolyzed meropenem], the dissociation constant Kd came out at 100 ± 10 µM.

A word on the Kd: it is the constant that tells how readily two partners part at equilibrium.
